Data reported in the NIST ThermoML archive (doi:10.1021/je200668a).

Conditions: Liquid, Pulse Transmission

O [water]
Conditions	speed of sound [m/s]
267.88 K, 349500 kPa	1996.1
267.89 K, 199900 kPa	1745.2
273.01 K, 49300 kPa	1483.9
273.02 K, 200500 kPa	1762.6
273.03 K, 50300 kPa	1485.7
273.05 K, 100 kPa	1399.3
273.07 K, 49200 kPa	1484
273.07 K, 499800 kPa	2214.4
273.08 K, 200700 kPa	1763.5
273.08 K, 300600 kPa	1930.8
273.08 K, 399700 kPa	2080.1
273.09 K, 100 kPa	1399.8
273.09 K, 100000 kPa	1578.3
273.09 K, 150200 kPa	1671.7
273.09 K, 150400 kPa	1671.6
273.09 K, 349400 kPa	2006.9
273.1 K, 100 kPa	1398.7
273.1 K, 100500 kPa	1579.6
273.1 K, 250700 kPa	1849
273.1 K, 350400 kPa	2009
273.1 K, 450500 kPa	2150.3
273.1 K, 500400 kPa	2215.2
273.1 K, 550500 kPa	2281.3
273.1 K, 602100 kPa	2345.3
273.11 K, 200300 kPa	1762.7
273.11 K, 250300 kPa	1848.4
273.11 K, 250600 kPa	1848.7
273.11 K, 299900 kPa	1929.5
273.11 K, 550200 kPa	2281.4
273.12 K, 300000 kPa	1929.7
273.12 K, 399600 kPa	2079.5
273.12 K, 401000 kPa	2081.2
273.12 K, 449300 kPa	2149.5
273.12 K, 450200 kPa	2149.8
273.12 K, 550300 kPa	2276.8
273.12 K, 599500 kPa	2342
273.13 K, 150200 kPa	1672.1
273.13 K, 349700 kPa	2007
273.13 K, 499900 kPa	2214.6
273.18 K, 99800 kPa	1577.5
278.05 K, 100 kPa	1425.1
278.05 K, 500300 kPa	2220.9
278.07 K, 349300 kPa	2013.6
278.08 K, 200300 kPa	1775.7
278.08 K, 349600 kPa	2014.7
278.08 K, 400000 kPa	2086.4
278.08 K, 450900 kPa	2156.9
278.08 K, 602100 kPa	2346.8
278.09 K, 49200 kPa	1507.3
278.09 K, 400000 kPa	2087.5
278.09 K, 449700 kPa	2155.5
278.09 K, 500500 kPa	2221.3
278.09 K, 550800 kPa	2286.8
278.09 K, 700200 kPa	2439.8
278.1 K, 299900 kPa	1938.9
278.1 K, 400500 kPa	2089.8
278.1 K, 500400 kPa	2223.3
278.11 K, 561500 kPa	2297.2
278.11 K, 640200 kPa	2390.8
278.12 K, 200800 kPa	1777.1
278.12 K, 250200 kPa	1858.4
278.12 K, 299900 kPa	1939.6
278.12 K, 450800 kPa	2157.8
278.12 K, 600700 kPa	2347.6
278.12 K, 650000 kPa	2402.2
278.13 K, 48300 kPa	1506
278.13 K, 150100 kPa	1688.3
278.13 K, 200100 kPa	1776.7
278.13 K, 250100 kPa	1859.7
278.13 K, 250600 kPa	1859.7
278.13 K, 550600 kPa	2284.7
278.14 K, 150100 kPa	1689.2
278.15 K, 100 kPa	1424.8
278.15 K, 99600 kPa	1597.6
278.16 K, 99900 kPa	1599.9
278.16 K, 300500 kPa	1940
278.17 K, 349800 kPa	2017.6
278.17 K, 599300 kPa	2344.6
278.17 K, 651900 kPa	2402.7
278.17 K, 701300 kPa	2451
278.19 K, 109200 kPa	1614.9
278.19 K, 159900 kPa	1705.3
278.19 K, 700600 kPa	2446.5
278.24 K, 100 kPa	1425.6
288 K, 450300 kPa	2162.1
288.07 K, 300700 kPa	1953.9
288.07 K, 600900 kPa	2346.8
288.08 K, 100 kPa	1463.4
288.08 K, 50800 kPa	1549.6
288.08 K, 149800 kPa	1717.5
288.08 K, 250500 kPa	1878.9
288.08 K, 350800 kPa	2026.4
288.08 K, 400300 kPa	2094.6
288.08 K, 699800 kPa	2453.6
288.09 K, 50900 kPa	1549.8
288.09 K, 110900 kPa	1650.2
288.09 K, 160100 kPa	1733.4
288.09 K, 349600 kPa	2026.1
288.09 K, 599500 kPa	2345.8
288.1 K, 499500 kPa	2226.5
288.1 K, 499700 kPa	2225.7
288.11 K, 100 kPa	1461.4
288.11 K, 200800 kPa	1799.7
288.11 K, 299800 kPa	1952.9
288.11 K, 599900 kPa	2344.8
288.11 K, 700800 kPa	2455.2
288.12 K, 200300 kPa	1800.1
288.12 K, 250000 kPa	1878.5
288.12 K, 399800 kPa	2094.8
288.13 K, 100 kPa	1462.4
